In US20110230476A1, “PI3 KINASE INHIBITORS AND USES THEREOF” (AVILA THERAPEUTICS, INC., priority 2009, published 2011) one finds EC50 and IC50 data, which are given here for 27 molecules.

In one assay the test system is Phospho-Akt(Ser473). Nature of the assay: Dose response in SKOV3 cells as determined by in-cell Western. It counts as cell-based. As to conditions: Homo sapiens, SK-OV-3; SKOV3 cells, 1 hr; read-out: pAKT Inhibition in cell Western. The protocol: Dose Response in SKOV3 Cells as Determined by in-Cell Western
Twenty four hours later the media was removed and replaced with 100 ul media containing test compound or control compound and cells were returned to the incubator for 1 hr. At the end of the hour, the media was removed and the cells were washed once with PBS, then fixed for 20 minutes at room temperature in 4% formaldehyde in PBS. The formaldehyde was removed and cells were washed 5 times for 5 minutes with 100 ul of Permeabilization Buffer (PBS+0.1% Triton X-100) at room temperature with gentle shaking. The last wash was removed and replaced with 150 ul of Odyssey Blocking Buffer (Li-Cor, Lincoln, Nebr.) and incubated for 90 minutes at room temperature with gentle shaking.
The Blocking Buffer was then replaced with 50 ul of primary antibody mix (rabbit anti-Phospho-Akt(Ser473) at 1:100 (Cell Signaling Technology, Boston, Mass.) and mouse anti-tubulin at 1:5000 (Sigma Aldrich, St. Louis, Mo.) diluted in Odyssey Blocking Buffer) and incubated overnight at room temperature with gentle shaking.
The next morning, the antibody mix was removed and the wells were washed 5 times for 5 minutes with PBS+0.1% Tween-20. The last wash was replaced with 50 ul of secondary antibody mix (goat anti-rabbit-IRDye-680 and goat anti-mouse-IRDye-800 (Li-Cor), both diluted 1:1000 in Odyssey Blocking Buffer+0.2% Tween-20) and incubated for 1 hour at room temperature with gentle shaking. The antibody mix was removed and the wells were washed 5 times for 5 minutes in PBS+0.1% Tween-20, then 1 time with ddH2O.
The plates were scanned on an Odyssey machine (Li-Cor) with a 3 mm focus offset at an intensity of 8 in both channels and the data was analyzed using the Odyssey software.

Another assay deals with T1, PI3Kα (p110α/p85α) (Homo sapiens, UniProt P42336).
T1 construct: purchased BPS Bioscience (San Diego, Calif.) or Millipore (Billerica, Mass.)
T1 sequence (P42336 whole entry): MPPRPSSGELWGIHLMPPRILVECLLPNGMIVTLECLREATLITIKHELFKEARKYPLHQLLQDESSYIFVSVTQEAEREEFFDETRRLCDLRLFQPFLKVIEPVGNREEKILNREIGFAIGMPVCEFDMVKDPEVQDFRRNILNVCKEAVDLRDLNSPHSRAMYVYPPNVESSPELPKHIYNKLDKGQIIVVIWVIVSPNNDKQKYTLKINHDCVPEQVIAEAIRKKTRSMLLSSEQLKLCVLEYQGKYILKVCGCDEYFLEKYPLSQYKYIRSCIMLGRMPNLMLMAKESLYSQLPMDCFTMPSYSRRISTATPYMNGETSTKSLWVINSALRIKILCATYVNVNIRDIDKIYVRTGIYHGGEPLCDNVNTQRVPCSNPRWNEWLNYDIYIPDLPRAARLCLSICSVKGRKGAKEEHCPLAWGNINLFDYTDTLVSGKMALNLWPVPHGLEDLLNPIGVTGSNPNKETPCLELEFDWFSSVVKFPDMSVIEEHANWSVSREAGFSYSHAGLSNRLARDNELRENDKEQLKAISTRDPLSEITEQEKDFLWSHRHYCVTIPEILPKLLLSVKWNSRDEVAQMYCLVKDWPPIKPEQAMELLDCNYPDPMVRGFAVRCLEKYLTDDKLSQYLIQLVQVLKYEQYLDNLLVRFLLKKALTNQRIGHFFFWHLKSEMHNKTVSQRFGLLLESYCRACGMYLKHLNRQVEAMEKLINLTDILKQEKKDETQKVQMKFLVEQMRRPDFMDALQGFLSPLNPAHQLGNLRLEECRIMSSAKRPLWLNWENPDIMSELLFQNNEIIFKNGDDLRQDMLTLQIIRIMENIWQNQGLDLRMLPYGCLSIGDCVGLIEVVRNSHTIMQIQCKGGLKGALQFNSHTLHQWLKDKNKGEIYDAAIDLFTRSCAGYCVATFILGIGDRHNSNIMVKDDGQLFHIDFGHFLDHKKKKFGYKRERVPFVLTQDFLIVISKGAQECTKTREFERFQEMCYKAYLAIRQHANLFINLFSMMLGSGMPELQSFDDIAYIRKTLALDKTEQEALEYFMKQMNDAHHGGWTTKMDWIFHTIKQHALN
T1 sequence (P27986 whole entry partner): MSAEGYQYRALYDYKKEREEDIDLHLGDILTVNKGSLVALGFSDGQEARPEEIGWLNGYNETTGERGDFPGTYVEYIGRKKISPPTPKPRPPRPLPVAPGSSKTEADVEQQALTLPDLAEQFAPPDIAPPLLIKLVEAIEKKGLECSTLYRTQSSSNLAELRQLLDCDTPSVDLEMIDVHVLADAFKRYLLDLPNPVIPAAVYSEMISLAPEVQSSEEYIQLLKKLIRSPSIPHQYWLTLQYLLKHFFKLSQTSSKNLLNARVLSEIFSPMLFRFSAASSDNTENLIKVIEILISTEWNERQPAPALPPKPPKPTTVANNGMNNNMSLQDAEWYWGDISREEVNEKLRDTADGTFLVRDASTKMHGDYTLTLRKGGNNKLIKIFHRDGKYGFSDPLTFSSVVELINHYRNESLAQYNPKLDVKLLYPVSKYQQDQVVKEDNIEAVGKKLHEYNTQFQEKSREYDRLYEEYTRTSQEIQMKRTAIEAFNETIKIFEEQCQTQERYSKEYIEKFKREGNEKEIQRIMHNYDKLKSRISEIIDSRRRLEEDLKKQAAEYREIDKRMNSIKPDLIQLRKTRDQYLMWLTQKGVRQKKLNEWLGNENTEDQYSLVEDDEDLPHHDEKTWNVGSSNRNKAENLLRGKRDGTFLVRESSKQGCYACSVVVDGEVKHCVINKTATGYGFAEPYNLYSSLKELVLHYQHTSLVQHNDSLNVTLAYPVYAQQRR
As to the kind of experiment: HTRF assay, potency against active PI3Kα. Conditions: HTRF; [ATP]=50 μM, [di-C8-PIP2]=10 μM; 30 min pre-incubation; read-out: PI3Kα Inhibition. Format: biochemical. The essentials: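 Active p110/p85α lipid kinase reactions were started with ATP and run 30-60 minutes at 25 °C, then stopped and developed with HTRF detection mix. HTRF ratio converted to % inhibition against ±enzyme controls; IC50 from log[inhibitor] vs response, variable slope.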

Where only a bound is given, the exact number is not on record here.

Regarding `Nc1ncnc2c1c(-c1cnc3[nH]ccc3c1)nn2C1CCCC1` [XI-ref], the EC50 in the assay on Phospho-Akt(Ser473) lay within 10 to 100 nM.
On to `C/C=C/C(=O)CCC(=O)N1CCC(n2ncc3c(N4CCOCC4)nc(-c4ccc(NC(=O)NC)cc4)nc32)CC1` [VII-7, (E)-1-methyl-3-(4-(4-morpholino-1-(1-(4-oxohept-5-enoyl)piperidin-4-yl)-1H-pyrazolo[3,4-d]pyrimidin-6-yl)phenyl)urea], for which the EC50 with Phospho-Akt(Ser473) lay within 100 to 1000 nM. Further, the IC50 at PI3Kα (p110α/p85α) lay within 100 to 1000 nM.
`COc1c(OCCOCCNS(C)(=O)=O)ccc2c1N=C(NC(=O)c1cccnc1)N1CCN=C21` [IX-ref]: in the assay with Phospho-Akt(Ser473), the EC50 lay in the range of 10 to 100 nM.
Regarding `CC(C)=CC(=O)CCC(=O)N1CCC2(CC1)CN(c1cc(-c3cnc(N)nc3)nc(N3CCOCC3)c1)C2` [XII-39, 1-(2-(2-(2-aminopyrimidin-5-yl)-6-morpholinopyridin-4-yl)-2,7-diazaspiro[3.5]nonan-7-yl)-6-methylhept-5-ene-1,4-dione], the EC50 in the assay on Phospho-Akt(Ser473) was in the range of 100 to 1000 nM. The IC50 on PI3Kα (p110α/p85α) was in the range of 10 to 100 nM.
Take `COc1ncc(-c2ccc3nccc(-c4ccncc4)c3c2)cc1NS(=O)(=O)c1ccc(F)cc1F` [X-ref]: the EC50 with Phospho-Akt(Ser473) was not above 10 nM.
Regarding `C=CC(=O)Nc1ccc(CCNC(=O)c2cc3nc(-c4cnc(N)nc4)cc(N4CCOCC4)c3s2)cc1` [II-g-1, N-(4-acrylamidophenethyl)-5-(2-aminopyrimidin-5-yl)-7-morpholinothieno[3,2-b]pyridine-2-carboxamide], the EC50 with Phospho-Akt(Ser473) fell in the range of 10 to 100 nM. Besides, the IC50 on PI3Kα (p110α/p85α) lay within 100 to 1000 nM.
In the same order, the values of `O=C(/C=C/c1ccccc1)CCCC(=O)N1CC=C(c2cc3nc(-c4cccc5[nH]ncc45)nc(N4CCOCC4)c3s2)CC1` [II-a-137, (E)-1-(4-(2-(1H-indazol-4-yl)-4-morpholinothieno[3,2-d]pyrimidin-6-yl)-5,6-dihydropyridin-1(2H)-yl)-7-phenylhept-6-ene-1,5-dione] are 10 to 100 nM and 10 to 100 nM.
As to `C=CC(=O)Nc1cccc(C(=O)N2CC=C(c3cc(-c4cnc(N)nc4)nc(N4CCOCC4)c3)CC2)c1` [XII-47, N-(3-(4-(2-(2-aminopyrimidin-5-yl)-6-morpholinopyridin-4-yl)-1,2,3,6-tetrahydropyridine-1-carbonyl)phenyl)acrylamide], in the assay with Phospho-Akt(Ser473), the EC50 lay within 100 to 1000 nM. In addition, the IC50 at PI3Kα (p110α/p85α) was 100 to 1000 nM.
Turning to `CCCC(=O)CCC(=O)N1CCN(Cc2cc3nc(-c4cccc5[nH]ncc45)nc(N4CCOCC4)c3s2)CC1` [II^R-a-36, 1-(4-((2-(1H-indazol-4-yl)-4-morpholinothieno[3,2-d]pyrimidin-6-yl)methyl)piperazin-1-yl)heptane-1,4-dione], the EC50 in the assay on Phospho-Akt(Ser473) fell in the range of 100 to 1000 nM. For the same molecule, the IC50 at PI3Kα (p110α/p85α) was more than 1000 nM.
On to `Cc1ccc(/C=C/C(=O)CCC(=O)N2CCN(Cc3cc4nc(-c5cccc6[nH]ncc56)nc(N5CCOCC5)c4s3)CC2)cc1` [II-a-139, (E)-1-(4-((2-(1H-indazol-4-yl)-4-morpholinothieno[3,2-d]pyrimidin-6-yl)methyl)piperazin-1-yl)-6-p-tolylhex-5-ene-1,4-dione], for which the EC50 with Phospho-Akt(Ser473) lay in the range of 100 to 1000 nM. Besides, the IC50 on PI3Kα (p110α/p85α) was in the range of 10 to 100 nM.
On to `C=CC(=O)N1CCC2(CC1)CCN(C(=O)c1cc3nc(-c4cccc(O)c4)nc(N4CCOCC4)c3s1)CC2` [II-a-119, 1-(9-(2-(3-hydroxyphenyl)-4-morpholinothieno[3,2-d]pyrimidine-6-carbonyl)-3,9-diazaspiro[5.5]undecan-3-yl)prop-2-en-1-one], for which the IC50 on PI3Kα (p110α/p85α) was 100 to 1000 nM.
Turning to `CC(C)=CC(=O)CCC(=O)N1CC=C(c2cc3nc(-c4cnc(N)nc4)nc(N4CCOCC4)c3s2)CC1` [II-a-165, 1-(4-(2-(2-aminopyrimidin-5-yl)-4-morpholinothieno[3,2-d]pyrimidin-6-yl)-5,6-dihydropyridin-1(2H)-yl)-6-methylhept-5-ene-1,4-dione], the IC50 on PI3Kα (p110α/p85α) fell in the range of 10 to 100 nM.
With `O=C(/C=C/c1cnc[nH]1)NCC12CCC(c3cc4nc(-c5cccc6[nH]ncc56)nc(N5CCOCC5)c4s3)(CC1)OC2` [II-a-177, (E)-N-((1-(2-(1H-indazol-4-yl)-4-morpholinothieno[3,2-d]pyrimidin-6-yl)-2-oxabicyclo[2.2.2]octan-4-yl)methyl)-3-(1H-imidazol-5-yl)acrylamide], the IC50 on PI3Kα (p110α/p85α) is 100 to 1000 nM.
`CC(C)=CC(=O)CCCCC#Cc1cc(-c2cnc(N)nc2)nc(N2CCOCC2)c1` [XII-6, 10-(2-(2-aminopyrimidin-5-yl)-6-morpholinopyridin-4-yl)-2-methyldec-2-en-9-yn-4-one]: the IC50 at PI3Kα (p110α/p85α) was 100 to 1000 nM.
As to `CC(C)=CC(=O)CCCC(=O)N1CCN(Cc2cc(-c3cnc(N)nc3)nc(N3CCOCC3)c2)CC1` [XII-23, 1-(4-((2-(2-aminopyrimidin-5-yl)-6-morpholinopyridin-4-yl)methyl)piperazin-1-yl)-7-methyloct-6-ene-1,5-dione], the IC50 on PI3Kα (p110α/p85α) was in the range of 100 to 1000 nM.
As for `C/C=C/C(=O)CCC(=O)N1Cc2ccc(-c3cc4nc(-c5cccc(O)c5)nc(N5CCOCC5)c4s3)cc2C1` [II-a-68, (E)-1-(5-(2-(3-hydroxyphenyl)-4-morpholinothieno[3,2-d]pyrimidin-6-yl)isoindolin-2-yl)hept-5-ene-1,4-dione], the IC50 at PI3Kα (p110α/p85α) is less than 10 nM.
For `C=CC(=O)NCCC(=O)N1CC=C(c2cc3nc(-c4cccc5[nH]ncc45)nc(N4CCOCC4)c3s2)CC1` [II-a-95, N-(3-(4-(2-(1H-indazol-4-yl)-4-morpholinothieno[3,2-d]pyrimidin-6-yl)-5,6-dihydropyridin-1(2H)-yl)-3-oxopropyl)acrylamide], the IC50 at PI3Kα (p110α/p85α) was more than 1000 nM.
Turning to `COc1c(OCCNC(=O)c2ccc(NC(=O)/C=C/c3ncc[nH]3)cc2)ccc2c1N=C(NC(=O)c1cccnc1)N1CCN=C21` [IX-6, (E)-N-(8-(2-(4-(3-(1H-imidazol-2-yl)acrylamido)benzamido)ethoxy)-7-methoxy-2,3-dihydroimidazo[1,2-c]quinazolin-5-yl)nicotinamide], at PI3Kα (p110α/p85α), the IC50 is 10 to 100 nM.
`CCC(=O)N(C)CC(=O)N1CCC(n2nc(-c3ccc(OC)c(OC)c3)c3c(N)ncnc32)CC1` [XI^R-2, N-(2-(4-(4-amino-3-(3,4-dimethoxyphenyl)-1H-pyrazolo[3,4-d]pyrimidin-1-yl)piperidin-1-yl)-2-oxoethyl)-N-methylpropionamide]: at PI3Kα (p110α/p85α), the IC50 is more than 1000 nM.
On to `CNC(=O)Nc1ccc(-c2nc(N3CCOCC3)c3cnn(C4CCN(C(=O)OC)CC4)c3n2)cc1` [VII-ref], for which, in the assay on Phospho-Akt(Ser473), the EC50 is 10 to 100 nM.
For the molecule `C=CC(=O)N[C@@H]1CCCC[C@H]1C(=O)N1CCN(Cc2cc3nc(-c4cccc5[nH]ncc45)nc(N4CCOCC4)c3s2)CC1` [II-a-97], the IC50 on PI3Kα (p110α/p85α) was 100 to 1000 nM.
Still for that read-out and setting: with `C/C(=C\c1ncc[nH]1)C(=O)CCC(=O)N1CCN(Cc2cc3nc(-c4cccc5[nH]ncc45)nc(N4CCOCC4)c3s2)CC1` [II-a-170, (E)-1-(4-((2-(1H-indazol-4-yl)-4-morpholinothieno[3,2-d]pyrimidin-6-yl)methyl)piperazin-1-yl)-6-(1H-imidazol-2-yl)-5-methylhex-5-ene-1,4-dione] the figure was 100 to 1000 nM; with `C=CC(=O)N1CCC(O)(C#Cc2cc3nc(-c4cccc(O)c4)nc(N4CCOCC4)c3s2)CC1` [II-a-69, 1-(4-hydroxy-4-((2-(3-hydroxyphenyl)-4-morpholinothieno[3,2-d]pyrimidin-6-yl)ethynyl)piperidin-1-yl)prop-2-en-1-one], 10 to 100 nM.
Take `O=C(CCl)N1CCN(Cc2cc3nc(-c4cccc5[nH]ncc45)nc(N4CCOCC4)c3s2)CC1` [II-a-145, 1-(4-((2-(1H-indazol-4-yl)-4-morpholinothieno[3,2-d]pyrimidin-6-yl)methyl)piperazin-1-yl)-2-chloroethanone]: the IC50 at PI3Kα (p110α/p85α) was 100 to 1000 nM.
On to `CC(C)=CC(=O)C1(C(=O)N2CC=C(C#Cc3cc(-c4cnc(N)nc4)nc(N4CCOCC4)c3)CC2)CC1` [XII-37, 1-(1-(4-((2-(2-aminopyrimidin-5-yl)-6-morpholinopyridin-4-yl)ethynyl)-1,2,3,6-tetrahydropyridine-1-carbonyl)cyclopropyl)-3-methylbut-2-en-1-one], for which the IC50 at PI3Kα (p110α/p85α) is 10 to 100 nM.
Turning to `C=CC(=O)N1CCc2ccc(-c3cc4nc(-c5cccc(O)c5)nc(N5CCOCC5)c4s3)cc2C1` [II-a-106, 1-(7-(2-(3-hydroxyphenyl)-4-morpholinothieno[3,2-d]pyrimidin-6-yl)-3,4-dihydroisoquinolin-2(1H)-yl)prop-2-en-1-one], at PI3Kα (p110α/p85α), the IC50 is 10 to 100 nM.
Same read-out and setting: with `C/C(=C\c1ccccc1)C(=O)CCC(=O)N1CCN(Cc2cc3nc(-c4cccc5[nH]ncc45)nc(N4CCOCC4)c3s2)CC1` [II-a-168, (E)-1-(4-((2-(1H-indazol-4-yl)-4-morpholinothieno[3,2-d]pyrimidin-6-yl)methyl)piperazin-1-yl)-5-methyl-6-phenylhex-5-ene-1,4-dione] the figure was 100 to 1000 nM.
